Measured values taken from ChEMBL document CHEMBL3779791, “Captopril analogues as metallo-β-lactamase inhibitors” (Bioorg Med Chem Lett, 2016).
Active and inactive are the calls of the source. The rule behind the calls is not given here.

What follows are compounds tested on Pseudomonas aeruginosa (assay: Competitive inhibition of Pseudomonas aeruginosa 101/1477 metallo-beta-lactamase IMP-1 expressed in Escherichia coli BL21 (DE3) using benzylpenicillin as substrate by spectrophotometric analysis).

SMILES	Kic
O=C(O)CC(=O)N1CCC[C@@H]1C(=O)O	inactive
O=C(O)CCCC(=O)N1CCC[C@H]1C(=O)O	inactive
O=C(O)CCCC(=O)N1CCC[C@@H]1C(=O)O	inactive
CC(=O)SCC(=O)N1CCCCC1C(=O)O (racemic)	24 µM
O=C(O)CC(=O)N1CCC[C@H]1C(=O)O	inactive
O=C(O)COC[C@H]1CCCN1C(=O)CS	290 µM
O=C(O)COC[C@H]1CCCN1C(=O)CCCS	363 µM
O=C(O)COC[C@H]1CCCN1C(=O)CCS	390 µM
O=C(O)C1CCCCN1C(=O)CCS (racemic)	10 µM
O=C(O)C1CCCCN1C(=O)CCCS (racemic)	7.1 µM
O=C(O)CCC(=O)N1CCC[C@@H]1C(=O)O	inactive
O=C(O)CCC(=O)N1CCC[C@H]1C(=O)O	inactive

Continued, values first:

Kic	SMILES
3.4 µM	O=C(O)C1CCCCN1C(=O)CS (racemic)
2.2 µM	O=C(O)[C@@H]1CCCN1C(=O)CS
2.9 µM	O=C(O)[C@H]1CCCN1C(=O)CCS
5.8 µM	O=C(O)[C@H]1CCCN1C(=O)CCCS
9.9 µM	O=C(O)[C@@H]1CCCN1C(=O)CCS
2.3 µM	O=C(O)[C@H]1CCCN1C(=O)CS
7.2 µM	O=C(O)[C@@H]1CCCN1C(=O)CCCS
